Assay results taken from patent US12071408B2, “Multi-targeted tyrosine kinase inhibitors effective in antitumor uses” (Shanghai AB PharmaTech Ltd., priority 2021, dated 2024).
Read-outs that look alike come from different tables or passages of the source.

Tests used:
[1] = test system: hepatocellular carcinoma cell line (Hep3B 2.1-7); assay: Tumor cell proliferation inhibition (CTG, 72 h); assay type: cell-based; conditions: Hep3B 2.1-7 cells, class, read-out: Hep3B 2.1-7 range of activity (IC50)
VEGFR-2 (KDR) = VEGFR-2 (KDR) (Homo sapiens (Human), UniProt P35968); assay: Kinase inhibition, Mobility-Shift Assay; assay type: biochemical; conditions: class; read-out: KDR activity effect range (IC50)
[2] = test system: thyroid cancer cell line (TT); assay: Tumor cell proliferation inhibition (CTG, 72 h); assay type: cell-based; conditions: TT cells, class, read-out: TT range of activity (IC50)
C-MET = C-MET (Homo sapiens (Human), UniProt P08581); assay: Kinase inhibition, Mobility-Shift Assay; assay type: biochemical; conditions: class; read-out: C-MET range of activity (IC50)
Chain of C-MET (P08581 25-1390): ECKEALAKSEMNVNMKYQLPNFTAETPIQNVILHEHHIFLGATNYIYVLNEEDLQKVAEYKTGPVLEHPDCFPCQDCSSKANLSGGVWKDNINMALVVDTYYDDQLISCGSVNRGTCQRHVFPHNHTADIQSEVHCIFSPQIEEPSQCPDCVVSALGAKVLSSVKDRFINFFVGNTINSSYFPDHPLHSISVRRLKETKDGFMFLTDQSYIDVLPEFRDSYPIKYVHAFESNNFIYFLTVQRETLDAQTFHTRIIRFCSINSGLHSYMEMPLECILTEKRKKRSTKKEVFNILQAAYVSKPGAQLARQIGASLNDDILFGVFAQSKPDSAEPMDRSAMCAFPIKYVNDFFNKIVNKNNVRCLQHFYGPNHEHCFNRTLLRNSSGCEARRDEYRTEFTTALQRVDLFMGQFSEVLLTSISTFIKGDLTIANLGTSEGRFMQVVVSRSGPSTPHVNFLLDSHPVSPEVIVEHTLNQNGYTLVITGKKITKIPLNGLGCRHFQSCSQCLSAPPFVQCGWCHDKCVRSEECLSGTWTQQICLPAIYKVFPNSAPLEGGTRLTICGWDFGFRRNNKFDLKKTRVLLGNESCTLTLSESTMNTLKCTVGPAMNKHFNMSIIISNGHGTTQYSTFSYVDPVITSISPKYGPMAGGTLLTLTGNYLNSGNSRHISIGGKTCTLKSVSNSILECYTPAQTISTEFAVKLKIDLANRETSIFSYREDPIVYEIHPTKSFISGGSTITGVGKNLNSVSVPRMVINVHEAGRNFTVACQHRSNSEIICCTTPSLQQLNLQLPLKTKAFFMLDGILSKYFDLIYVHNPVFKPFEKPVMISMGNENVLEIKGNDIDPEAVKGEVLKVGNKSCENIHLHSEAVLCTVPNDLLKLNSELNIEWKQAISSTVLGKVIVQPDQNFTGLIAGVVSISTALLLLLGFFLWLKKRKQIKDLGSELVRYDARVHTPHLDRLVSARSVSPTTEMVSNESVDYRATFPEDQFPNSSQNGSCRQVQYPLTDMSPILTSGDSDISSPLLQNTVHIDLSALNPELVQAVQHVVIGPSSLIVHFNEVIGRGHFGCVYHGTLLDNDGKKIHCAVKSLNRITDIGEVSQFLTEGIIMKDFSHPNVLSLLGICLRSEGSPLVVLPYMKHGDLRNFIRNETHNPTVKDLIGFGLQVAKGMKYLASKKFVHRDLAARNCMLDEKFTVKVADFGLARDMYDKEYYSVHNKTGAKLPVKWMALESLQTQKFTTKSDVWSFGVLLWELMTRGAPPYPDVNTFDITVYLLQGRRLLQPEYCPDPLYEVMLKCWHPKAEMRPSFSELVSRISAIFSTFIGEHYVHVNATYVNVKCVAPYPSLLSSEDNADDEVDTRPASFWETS

FGFR2 = FGFR2 (Homo sapiens (Human), UniProt P21802); assay: Kinase inhibition, Mobility-Shift Assay; assay type: biochemical; conditions: class; read-out: FGFR2 range of activity effects (IC50)
Chain of FGFR2 (P21802 22-821): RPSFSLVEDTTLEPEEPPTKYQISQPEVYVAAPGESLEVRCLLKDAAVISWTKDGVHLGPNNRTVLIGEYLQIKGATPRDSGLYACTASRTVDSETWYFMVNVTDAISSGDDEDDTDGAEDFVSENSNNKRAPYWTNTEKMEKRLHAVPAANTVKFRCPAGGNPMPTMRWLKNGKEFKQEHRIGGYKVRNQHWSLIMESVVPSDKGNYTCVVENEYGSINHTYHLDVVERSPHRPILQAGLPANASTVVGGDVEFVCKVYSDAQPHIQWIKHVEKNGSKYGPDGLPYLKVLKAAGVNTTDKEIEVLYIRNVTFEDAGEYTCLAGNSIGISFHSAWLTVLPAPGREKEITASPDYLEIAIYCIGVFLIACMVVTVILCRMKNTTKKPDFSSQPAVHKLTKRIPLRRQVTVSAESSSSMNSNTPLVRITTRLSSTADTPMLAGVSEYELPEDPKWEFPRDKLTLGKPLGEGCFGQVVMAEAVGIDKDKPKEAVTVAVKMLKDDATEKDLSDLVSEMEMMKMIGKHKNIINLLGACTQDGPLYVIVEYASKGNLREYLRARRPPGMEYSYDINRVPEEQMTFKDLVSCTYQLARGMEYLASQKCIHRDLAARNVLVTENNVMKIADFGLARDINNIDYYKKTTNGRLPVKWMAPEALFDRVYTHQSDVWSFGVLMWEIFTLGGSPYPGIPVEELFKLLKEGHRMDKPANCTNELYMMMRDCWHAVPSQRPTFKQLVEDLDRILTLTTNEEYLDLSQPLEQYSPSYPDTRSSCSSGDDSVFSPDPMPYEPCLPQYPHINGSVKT

[3] = test system: bladder cancer cell line (RT112/84); assay: Tumor cell proliferation inhibition (CTG, 72 h); assay type: cell-based; conditions: RT112/84 cells, class, read-out: RT112/84 range of activity (IC50)
FGFR4 = FGFR4 (Homo sapiens (Human), UniProt P22455); assay: Kinase inhibition, Mobility-Shift Assay; assay type: biochemical; conditions: class; read-out: FGFR4 range of activity effects (IC50)
Chain of FGFR4 (P22455 22-802): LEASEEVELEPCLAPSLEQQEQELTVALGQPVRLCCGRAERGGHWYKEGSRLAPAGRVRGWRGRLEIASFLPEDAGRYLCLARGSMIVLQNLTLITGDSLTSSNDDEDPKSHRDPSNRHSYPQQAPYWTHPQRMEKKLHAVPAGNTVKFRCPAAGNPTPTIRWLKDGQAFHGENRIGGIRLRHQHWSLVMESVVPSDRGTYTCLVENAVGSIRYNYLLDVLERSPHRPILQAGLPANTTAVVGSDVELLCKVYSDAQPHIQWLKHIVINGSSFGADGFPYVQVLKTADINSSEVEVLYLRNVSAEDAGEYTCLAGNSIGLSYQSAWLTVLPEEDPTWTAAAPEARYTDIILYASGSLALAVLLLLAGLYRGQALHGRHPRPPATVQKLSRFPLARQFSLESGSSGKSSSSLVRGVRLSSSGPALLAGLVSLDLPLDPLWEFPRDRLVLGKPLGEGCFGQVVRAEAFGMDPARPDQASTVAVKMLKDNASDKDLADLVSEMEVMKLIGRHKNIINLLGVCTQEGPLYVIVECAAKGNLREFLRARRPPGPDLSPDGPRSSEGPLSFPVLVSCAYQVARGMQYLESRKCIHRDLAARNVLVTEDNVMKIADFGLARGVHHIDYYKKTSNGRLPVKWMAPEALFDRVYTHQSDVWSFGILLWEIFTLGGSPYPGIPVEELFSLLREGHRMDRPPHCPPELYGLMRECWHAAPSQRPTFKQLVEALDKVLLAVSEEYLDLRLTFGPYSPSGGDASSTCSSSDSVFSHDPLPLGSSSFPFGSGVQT

[4] = test system: cervical cancer cell line (Hela); assay: Tumor cell proliferation inhibition (CTG, 72 h); assay type: cell-based; conditions: Hela cells, class, read-out: Hela activity effect range (IC50)
[5] = test system: leukemia cell line (K562); assay: Tumor cell proliferation inhibition (CTG, 72 h); assay type: cell-based; conditions: K562 cells, class, read-out: K562 activity effect range (IC50)
EGFR = EGFR (Homo sapiens (Human), UniProt P00533); assay: Kinase inhibition, Mobility-Shift Assay; assay type: biochemical; conditions: class; read-out: EGFR range of activity (IC50)
Chain of EGFR (P00533 25-1210): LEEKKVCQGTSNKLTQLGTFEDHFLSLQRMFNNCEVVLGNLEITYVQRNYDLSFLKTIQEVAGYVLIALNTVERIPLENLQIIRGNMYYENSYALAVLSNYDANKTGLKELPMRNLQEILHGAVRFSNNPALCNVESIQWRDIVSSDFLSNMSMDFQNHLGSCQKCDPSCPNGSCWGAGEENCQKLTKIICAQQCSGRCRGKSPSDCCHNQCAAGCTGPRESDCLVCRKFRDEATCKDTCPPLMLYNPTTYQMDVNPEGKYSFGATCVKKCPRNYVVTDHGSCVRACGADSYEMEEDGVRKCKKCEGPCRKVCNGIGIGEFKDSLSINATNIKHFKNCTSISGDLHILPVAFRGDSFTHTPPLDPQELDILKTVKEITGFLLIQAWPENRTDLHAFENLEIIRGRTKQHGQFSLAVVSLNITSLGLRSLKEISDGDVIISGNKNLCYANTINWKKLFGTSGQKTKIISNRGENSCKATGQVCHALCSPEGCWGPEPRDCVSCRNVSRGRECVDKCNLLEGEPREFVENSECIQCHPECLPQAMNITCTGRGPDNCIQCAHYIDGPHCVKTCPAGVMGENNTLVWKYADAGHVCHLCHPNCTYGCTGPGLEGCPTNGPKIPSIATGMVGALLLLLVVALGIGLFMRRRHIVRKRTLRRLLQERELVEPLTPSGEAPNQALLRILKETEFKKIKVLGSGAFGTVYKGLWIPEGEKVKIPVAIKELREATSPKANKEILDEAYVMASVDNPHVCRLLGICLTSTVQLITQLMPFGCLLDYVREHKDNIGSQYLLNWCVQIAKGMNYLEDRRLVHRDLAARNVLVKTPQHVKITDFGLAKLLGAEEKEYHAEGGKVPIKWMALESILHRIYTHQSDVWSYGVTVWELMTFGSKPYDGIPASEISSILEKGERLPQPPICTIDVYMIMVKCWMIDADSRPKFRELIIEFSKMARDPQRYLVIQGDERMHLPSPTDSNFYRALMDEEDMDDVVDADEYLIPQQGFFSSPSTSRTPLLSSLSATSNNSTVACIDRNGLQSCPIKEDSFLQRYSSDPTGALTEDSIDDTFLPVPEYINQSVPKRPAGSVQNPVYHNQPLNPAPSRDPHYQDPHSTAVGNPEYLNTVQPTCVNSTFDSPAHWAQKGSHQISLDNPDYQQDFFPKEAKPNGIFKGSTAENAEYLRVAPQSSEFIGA

| IC50 ([1]; Homo sapiens) | IC50 (VEGFR-2 (KDR)) | IC50 ([2]; Homo sapiens) | IC50 (C-MET) | IC50 (FGFR2) | IC50 ([3]; Homo sapiens) | IC50 (FGFR4) | IC50 ([4]; Homo sapiens) | IC50 ([5]; Homo sapiens) | IC50 (EGFR) | IC50 [1] | IC50 [2] | IC50 [3] | IC50 [4] | IC50 [5] | SMILES |
| --- | --- | --- | --- | --- | --- | --- | --- | --- | --- | --- | --- | --- | --- | --- | --- |
| > 5000 nM | > 10 nM | > 10000 nM | > 100 nM | > 100 nM | > 1000 nM | > 100 nM | > 10000 nM | > 10000 nM | > 100 nM | – | – | – | – | – | COc1cc2nccc(Oc3c(F)cc(NC(=O)NC4CCOCC4)c(Cl)c3F)c2cc1C(N)=O [III-28] |
| > 5000 nM | > 10 nM | > 10000 nM | > 100 nM | > 100 nM | > 1000 nM | > 100 nM | > 10000 nM | > 10000 nM | > 100 nM | – | – | – | – | – | COc1cc2nccc(Oc3c(F)cc(NC(=O)NC4CC(O)C4)c(Cl)c3F)c2cc1C(N)=O (stereo not drawn) [III-29] |
| – | > 10 nM | – | > 100 nM | > 100 nM | – | > 100 nM | – | – | > 100 nM | > 5000 nM | > 10000 nM | > 1000 nM | > 10000 nM | > 10000 nM | COc1cc2nccc(Oc3c(F)cc(NC(=O)NC4CC(O)C4)c(Cl)c3F)c2cc1C(N)=O (stereo not drawn) [III-30] |
| > 5000 nM | > 10 nM | > 10000 nM | > 100 nM | > 100 nM | > 1000 nM | > 100 nM | > 10000 nM | > 10000 nM | > 100 nM | – | – | – | – | – | COc1cc2nccc(Oc3c(F)cc(NC(=O)N4CC[C@H](O)C4)c(Cl)c3F)c2cc1C(N)=O [III-31] |
| > 5000 nM | > 10 nM | > 10000 nM | > 100 nM | > 100 nM | > 1000 nM | > 100 nM | > 10000 nM | > 10000 nM | > 100 nM | – | – | – | – | – | COc1cc2nccc(Oc3c(F)cc(NC(=O)N4CC[C@@H](O)C4)c(Cl)c3F)c2cc1C(N)=O [III-32] |
| > 5000 nM | > 10 nM | > 10000 nM | > 100 nM | > 100 nM | > 1000 nM | > 100 nM | > 10000 nM | > 10000 nM | > 100 nM | – | – | – | – | – | COc1cc2nccc(Oc3c(F)cc(NC(=O)N4CCN(C)CC4)c(Cl)c3F)c2cc1C(N)=O [III-33] |
| > 5000 nM | > 10 nM | > 10000 nM | > 100 nM | > 100 nM | > 1000 nM | > 100 nM | > 10000 nM | > 10000 nM | > 100 nM | – | – | – | – | – | COc1cc2nccc(Oc3c(F)cc(NC(=O)NC(C)C)c(Cl)c3F)c2cc1C(N)=O [III-34] |
| > 5000 nM | > 10 nM | > 10000 nM | > 100 nM | > 100 nM | > 1000 nM | > 100 nM | > 10000 nM | > 10000 nM | > 100 nM | – | – | – | – | – | COc1cc2nccc(Oc3c(Cl)cc(NC(=O)NC4CC4)c(F)c3F)c2cc1C(N)=O [III-35] |
| > 5000 nM | > 10 nM | > 10000 nM | > 100 nM | > 100 nM | > 1000 nM | > 100 nM | > 10000 nM | > 10000 nM | > 100 nM | – | – | – | – | – | COc1cc2nccc(Oc3c(F)c(F)c(NC(=O)NC4CC4)c(F)c3F)c2cc1C(N)=O [III-36] |
| > 5000 nM | > 10 nM | > 10000 nM | > 100 nM | > 100 nM | > 1000 nM | > 100 nM | > 10000 nM | > 10000 nM | > 100 nM | – | – | – | – | – | C=CC1CC1(NC(=O)Nc1cc(F)c(Oc2ccnc3cc(OC)c(C(N)=O)cc23)c(F)c1Cl)C(=O)NC1CC1 (stereo not drawn) [III-37] |
| > 5000 nM | > 10 nM | > 10000 nM | > 100 nM | > 100 nM | > 1000 nM | > 100 nM | > 10000 nM | > 10000 nM | > 100 nM | – | – | – | – | – | COc1cc2nccc(Oc3c(F)cc(NC(=O)NC(C)C(F)(F)F)c(Cl)c3F)c2cc1C(N)=O (stereo not drawn) [III-38] |
| > 5000 nM | > 10 nM | > 10000 nM | > 100 nM | > 100 nM | > 1000 nM | > 100 nM | > 10000 nM | > 10000 nM | > 100 nM | – | – | – | – | – | COc1cc2nccc(Oc3c(F)cc(NC(=O)NC4(C(F)(F)F)CC4)c(Cl)c3F)c2cc1C(N)=O [III-39] |
| > 5000 nM | > 10 nM | > 10000 nM | > 100 nM | > 100 nM | > 1000 nM | > 100 nM | > 10000 nM | > 10000 nM | > 100 nM | – | – | – | – | – | COc1cc2nccc(Oc3c(F)cc(NC(=O)NC4CC4)c(OC)c3F)c2cc1C(N)=O [III-40] |
| > 5000 nM | > 10 nM | > 10000 nM | > 100 nM | > 100 nM | > 1000 nM | > 100 nM | > 10000 nM | > 10000 nM | > 100 nM | – | – | – | – | – | COc1cc2nccc(Oc3c(F)cc(NC(=O)NC4CC4)c(Cl)c3OC)c2cc1C(N)=O [III-41] |
| > 5000 nM | > 10 nM | > 10000 nM | > 100 nM | > 100 nM | > 1000 nM | > 100 nM | > 10000 nM | > 10000 nM | > 100 nM | – | – | – | – | – | COc1cc2nccc(Oc3c(F)cc(NC(=O)NC4CC4)c(Cl)c3OC(C)C)c2cc1C(N)=O [III-42] |
| > 5000 nM | > 10 nM | > 10000 nM | > 100 nM | > 100 nM | > 1000 nM | > 100 nM | > 10000 nM | > 10000 nM | > 100 nM | – | – | – | – | – | [2H]C([2H])([2H])Oc1c(Cl)c(NC(=O)NC2CC2)cc(F)c1Oc1ccnc2cc(OC)c(C(N)=O)cc12 [III-43] |
| > 5000 nM | > 10 nM | > 10000 nM | > 100 nM | > 100 nM | > 1000 nM | > 100 nM | > 10000 nM | > 10000 nM | > 100 nM | – | – | – | – | – | COc1cc2nccc(Oc3c(F)cc(NC(=O)NC4CC4)c(Cl)c3OCC(F)F)c2cc1C(N)=O [III-44] |
| > 5000 nM | > 10 nM | > 10000 nM | > 100 nM | > 100 nM | > 1000 nM | > 100 nM | > 10000 nM | > 10000 nM | > 100 nM | – | – | – | – | – | COc1cc2nccc(Oc3c(F)cc(NC(=O)NC4CC4)c(Cl)c3OC3CC3)c2cc1C(N)=O [III-45] |
| > 5000 nM | > 10 nM | > 10000 nM | > 100 nM | > 100 nM | > 1000 nM | > 100 nM | > 10000 nM | > 10000 nM | > 100 nM | – | – | – | – | – | COc1cc2nccc(Oc3c(F)cc(NC(=O)NC4CC4)c(N(C)C)c3F)c2cc1C(N)=O [III-46] |
| > 5000 nM | > 10 nM | > 10000 nM | > 100 nM | > 100 nM | > 1000 nM | > 100 nM | > 10000 nM | > 10000 nM | > 100 nM | – | – | – | – | – | COc1cc2nccc(Oc3c(F)cc(NC(=O)NC4CC4)c(Cl)c3OCC(F)(F)F)c2cc1C(N)=O [III-47] |
| > 5000 nM | > 10 nM | > 10000 nM | > 100 nM | > 100 nM | > 1000 nM | > 100 nM | > 10000 nM | > 10000 nM | > 100 nM | – | – | – | – | – | COc1cc2nccc(Oc3c(F)cc(NC(=O)NC4CC4)c(Cl)c3N(C)C3CC3)c2cc1C(N)=O [III-48] |
| > 5000 nM | > 10 nM | > 10000 nM | > 100 nM | > 100 nM | > 1000 nM | > 100 nM | > 10000 nM | > 10000 nM | > 100 nM | – | – | – | – | – | COc1cc2nccc(Oc3c(F)cc(NC(=O)NC4CC4)c(Cl)c3N(C)C)c2cc1C(N)=O [III-49] |
| > 5000 nM | > 10 nM | > 10000 nM | > 100 nM | > 100 nM | > 1000 nM | > 100 nM | > 10000 nM | > 10000 nM | > 100 nM | – | – | – | – | – | COc1cc2nccc(Oc3c(F)c(F)c(NC(=O)NC4CC4)c(N(C)C)c3F)c2cc1C(N)=O [III-50] |
| > 5000 nM | > 10 nM | > 10000 nM | > 100 nM | > 100 nM | > 1000 nM | > 100 nM | > 10000 nM | > 10000 nM | > 100 nM | – | – | – | – | – | COc1cc2nccc(Oc3c(F)c(F)c(NC(=O)NC4CC4)c(OC)c3F)c2cc1C(N)=O [III-51] |
